What was measured:
LNCaP cell xenografts = test: tissue distribution of ^177Lu-labeled compounds in mice bearing LNCaP xenografts; assay type: in vivo; conditions: for concentration in kidneys compared with tumor: 4 hours post administration; for concentration in LNCap tumor: 24 hours and 96 hours post administration compared with 4 hours; for clearance from the kidneys: over a period of 96 hours
Method: All animal studies were approved by the Institute for Animal Care and Use Committee in accordance with the guidelines set forth by the U.S. Public Health Service Policy on Humane Care and Use of Laboratory Animals. Mice were housed under standard conditions in approved facilities with 12 hour light/dark cycles and given food and water ad libitum. Male athymic NCr-nu/nu mice were purchased from Taconic. For inoculation in mice, LNCaP cells were resuspended at 10^7 cells/ml in a 1:1 mixture of cell culture medium:Matrigel (BD Biosciences). Each mouse was injected in the right flank with 0.25 ml of the cell suspension. Mice were used for tissue distribution studies when the tumors reached approximately 100-400 mm^3.
A quantitative analysis of the tissue distribution of ^177Lu-labeled compounds was performed in separate groups of male NCr-nu/nu mice bearing LNCaP cell xenografts. The compounds were administered via the tail vein as a bolus injection (approximately 10 μCi/mouse) in a constant volume of 0.05 mL. The animals (n=5/time point) were euthanized by asphyxiation with carbon dioxide at the indicated time points after injection. Tissues, for example, blood, heart, lungs, liver, spleen, kidneys, stomach, large and small intestines (with contents), testes, skeletal muscle, bone, brain, adipose, and tumor were dissected, excised, weighed wet, and counted in an automated γ-counter. Tissue time-radioactivity levels were expressed as percent injected dose per gram of tissue (% ID/g).

PSMA = target: T1, PSMA (Homo sapiens, UniProt Q04609); test: ^68Ga-PSMA PET/CT imaging of a subject having prostate cancer; assay type: in vivo
T1 construct: from tissue; host or cells: in vivo: prostate tissue, lymph node and bone lesions of a subject having prostate cancer
T1 sequence (Q04609 whole entry): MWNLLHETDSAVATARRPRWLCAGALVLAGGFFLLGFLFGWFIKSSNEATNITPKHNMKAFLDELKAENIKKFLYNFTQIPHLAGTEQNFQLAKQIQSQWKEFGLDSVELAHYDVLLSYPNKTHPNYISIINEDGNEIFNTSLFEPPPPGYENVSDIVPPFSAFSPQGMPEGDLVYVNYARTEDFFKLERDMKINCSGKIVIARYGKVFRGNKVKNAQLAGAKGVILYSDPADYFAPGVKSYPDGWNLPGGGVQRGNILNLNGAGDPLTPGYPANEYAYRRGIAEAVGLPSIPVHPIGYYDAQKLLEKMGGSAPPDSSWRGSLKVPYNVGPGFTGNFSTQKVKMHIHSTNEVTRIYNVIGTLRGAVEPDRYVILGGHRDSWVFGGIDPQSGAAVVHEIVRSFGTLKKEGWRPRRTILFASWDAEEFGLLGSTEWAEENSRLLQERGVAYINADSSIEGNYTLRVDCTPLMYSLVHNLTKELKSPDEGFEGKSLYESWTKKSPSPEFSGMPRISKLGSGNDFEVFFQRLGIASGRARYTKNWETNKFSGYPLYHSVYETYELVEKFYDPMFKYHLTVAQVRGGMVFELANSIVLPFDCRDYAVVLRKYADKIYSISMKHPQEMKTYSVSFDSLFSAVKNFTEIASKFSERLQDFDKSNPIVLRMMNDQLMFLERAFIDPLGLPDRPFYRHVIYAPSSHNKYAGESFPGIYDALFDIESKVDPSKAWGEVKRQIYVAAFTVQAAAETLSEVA
Method: According to another embodiment of the invention, radiometal complexes of Formula I and Formula II compounds were used for imaging prostate cancer and accompanying metastasis in a subject. Briefly, ^68Ga was complexed to (2S)-2-(3-((1S)-1-carboxy-5-(11-(4-(4-(dimethylamino)-6-((4-((1,4,7,10-tetrakis(carboxymethyl)-1,4,7,10-tetraazacyclododecan-2-yl)methyl)phenyl)amino)-1,3,5-triazin-2-yl)piperazin-1-yl)undecanamido)pentyl)ureido)pentanedioic acid and the resultant complex was administered to a subject having prostate cancer. The subject was then imaged at 1 hour and 3 hours post administration of the inventive ^68Ga complex using, for example, a ^68Ga-PSMA PET/CT scanner. […] Overall, this imaging study supports the use of radiometal complexes of the inventive compounds as suitable agents for radioimaging of cancers, such as prostate cancer.

LNCaP xenografts = test: in vivo efficacy: inhibition of LNCaP tumor growth; set-up: species or system mice; conditions: 450 μCi per mouse, intravenous
Method: FIG. 5 illustrates the in vivo efficacy of an exemplary lutetium complex of the invention to inhibit the growth of LNCaP tumors in mice. Arrest of tumor growth was determined by administering 450 μCi of the lutetium complex of (2S)-2-(3-((1S)-1-caroxy-5-(11-(4-(4-(dimethylamino)-6-((4-((1,4,7,10-tetrakis(carboxymethyl)-1,4,7,10-tetraazacyclododecan-2-yl)methyl)phenyl)amino)-1,3,5-triazin-2-yl)piperazin-1-yl)undecanamido)pentyl)ureido)pentanedioic acid to each mouse in the study group. Mice in the control group were administered saline. Tumor volumes in the test and control group of mice were measured twice weekly.
All animal studies were approved by the Institute for Animal Care and Use Committee in accordance with the guidelines set forth by the U.S. Public Health Service Policy on Humane Care and Use of Laboratory Animals. Mice were housed under standard conditions in approved facilities with 12 hour light/dark cycles and given food and water ad libitum. Male athymic NCr-nu/nu mice were purchased from Taconic. […]
Mice bearing LNCaP xenografts having an average volume of ˜100-500 mm^3, were randomly assigned to a control group or a treatment group (n=10 mice per group). […] Tumor dimensions were measured twice weekly with digital calipers and tumor volumes were calculated using the formula ([…]Π×width^2×length)/6. […]

[1] = ^177Lu complex, LNCap xenograft mice, tail vein bolus
[2] = extended study, 3 weeks post administration
[3] = extended study, between 24 hours to 96 hours

## ^177Lu-complex of (21S,25S)-8,15,23-trioxo-1-(4-((1,4,7,10-tetrakis(carboxymethyl)-1,4,7,10-tetraazacyclododecan-2-yl)methyl)phenylamino)-1 thioxo-2,7,16,22,24-pentaazaheptacosane-21,25,27-tricarboxylic acid [complex (C), reference compound]
LNCaP cell xenografts
  concentration in kidneys compared with tumor: greater in kidneys than in tumor
  concentration in LNCap tumor: decreases
LNCaP cell xenografts; [1]
  concentration in kidneys and tumor compared with other tissues: concentrate in kidneys and tumor to a greater extent than other tissues

## ^68Ga complex of (2S)-2-(3-((1S)-1-carboxy-5-(11-(4-(4-(dimethylamino)-6-((4-((1,4,7,10-tetrakis(carboxymethyl)-1,4,7,10-tetraazacyclododecan-2-yl)methyl)phenyl)amino)-1,3,5-triazin-2-yl)piperazin-1-yl)undecanamido)pentyl)ureido)pentanedioic acid [Example 17]
PSMA; FIG. 6
  tissue accumulation in radiographic image: accumulates in the lacrimal and salivary glands, kidney, liver, and urinary bladder
PSMA; imaged at 1 hour and 3 hours post administration
  PSMA specific lesions in radiographic image: detected in the lymph nodes and bone, in addition to the prostate tissue itself
PSMA; visible at hour 1
  imaging agent visible in bladder: cleared by the 3-hour scan

## CN(C)c1nc(Nc2ccc(CC3CN(CC(=O)O)CCN(CC(=O)O)CCN(CC(=O)O)CCN3CC(=O)O)cc2)nc(N2CCN(CCCCCCCCCCC(=O)NCCCC[C@H](NC(=O)N[C@@H](CCC(=O)O)C(=O)O)C(=O)O)CC2)n1 (stereo partly drawn) [complex (D), ^177Lu-complex of (2S)-2-(3-((1S)-1-carboxy-5-(11-(4-(4-(dimethylamino)-6-((4-((1,4,7,10-tetrakis(carboxymethyl)-1,4,7,10-tetraazacyclododecan-2-yl)methyl)phenyl)amino)-1,3,5-triazin-2-yl)piperazin-1-yl)undecanamido)pentyl)ureido)pentanedioic acid, metal not drawn]
LNCaP cell xenografts; extended biodistribution study, shorter time intervals post administration
  concentration in kidneys and tumor compared with other tissues: concentrates to a greater extent in kidneys and tumor than other tissues
LNCaP cell xenografts; extended study, 1 week post administration
  intracellular concentration in LNCaP tumor cells: no appreciable change
LNCaP cell xenografts; extended study, 1 week post administration compared with within eight hours
  intrarenal concentration: significantly lower
LNCaP cell xenografts; [2]
  decrease in tumor concentration compared with decrease in intrarenal concentration: less compared to the decrease in the intrarenal concentration
  intratumoral concentration: decrease
LNCaP cell xenografts; [3]
  concentration in kidney: decreases
  concentration in tumor: no observable change
LNCaP cell xenografts; extended study, first eight hours post administration
  concentration in kidneys and tumor as a function of time: gradual increase
LNCaP xenografts
  LNCaP tumor volumes compared with volume at the start of the study: decrease to values lower than the tumor volume at the start of the study
LNCaP xenografts; measured twice weekly
  tumor volumes compared with saline control group: significantly lower

## O=C(O)CC[C@H](NC(=O)N[C@@H](CCCCNC(=O)CCCCCCCCCCN1CCN(c2nc(Nc3ccc(CC4CN(CC(=O)O)CCN(CC(=O)O)CCN(CC(=O)O)CCN4CC(=O)O)cc3)nc(N3CCCCC3)n2)CC1)C(=O)O)C(=O)O (stereo partly drawn) [complex (B), ^177Lu-complex of (2S)-2-(3-((1S)-1-carboxy-5-(11-(4-(4-(piperidin-1-yl)-6-((4-((1,4,7,10-tetrakis(carboxymethyl)-1,4,7,10-tetraazacyclododecan-2-yl)methyl)phenyl)amino)-1,3,5-triazin-2-yl)piperazin-1-yl)undecanamido)pentyl)ureido)pentanedioic acid, metal not drawn]
LNCaP cell xenografts
  concentration in kidneys compared with tumor: greater in kidneys than in tumor
  concentration in LNCap tumor: remained unchanged
  clearance from the kidneys: rapidly cleared from the kidneys
LNCaP cell xenografts; [1]
  concentration in kidneys and tumor compared with other tissues: concentrate in kidneys and tumor to a greater extent than other tissues

## O=C(O)CCOCCOCCNc1nc(Nc2ccc(CC3CN(CC(=O)O)CCN(CC(=O)O)CCN(CC(=O)O)CCN3CC(=O)O)cc2)nc(N2CCN(CCCCCCCCCCC(=O)NCCCC[C@H](NC(=O)N[C@@H](CCC(=O)O)C(=O)O)C(=O)O)CC2)n1 (stereo partly drawn) [complex (A), ^177Lu-complex of (2S)-2-(3-(1-carboxy-5-(11-(4-(4-((2-(2-(2-carboxyethoxy)ethoxy)ethyl)amino)-6-((4-((1,4,7,10-tetrakis(carboxymethyl)-1,4,7,10-tetraazacyclododecan-2-yl)methyl)phenyl)amino)-1,3,5-triazin-2-yl)piperazin-1-yl)undecanamido)pentyl)ureido)pentanedioic acid, metal not drawn]
LNCaP cell xenografts
  concentration in kidneys compared with tumor: greater in kidneys than in tumor
  concentration in LNCap tumor: remained unchanged
  clearance from the kidneys: rapidly cleared from the kidneys
LNCaP cell xenografts; [1]
  concentration in kidneys and tumor compared with other tissues: concentrate in kidneys and tumor to a greater extent than other tissues
